Tests used:
Type in all cases: cell-based
[1] = tested on: global transcript levels (28,869 transcripts) in MCF7 cells; experiment: Gene expression profiling with Affymetrix Human Gene ST 1.0 Arrays
From the text: Since the target proteins p300 and CBP are pleiotropic multidomain coactivators, their CH1 regions contain binding sites for multiple transcription factors. One potential concern of the use of ETPs for gene regulation is specificity, because inhibiting the interaction between CBP/p300 and transcription factors other than HIF1α may result in large numbers of affected genes. To rule out nonspecific genome-wide effects of ETPs, we conducted in vitro gene expression profiling experiments with LS72 using Affymetrix Human Gene ST 1.0 Arrays containing oligonucleotide sequences representing 28,869 transcripts.^67,68
In order to interrogate cellular genome for global effects, MCF7 cells treated with LS72 at 400 nM were used. Treatment of cells with LS72 at a concentration of 400 nM affected the expression of only 178 genes at ≧2.0 fold levels (FIG. 20). By comparison, treatment with DFO alone changed levels of 329 genes ≧2.0 fold. […] In cells treated with LS72 under DFO-induced hypoxia conditions, we identified 190 genes were affected by this compound. Clustering analysis was performed to identify similarities in the expression profiles between different treatments (FIG. 19).

CXCR4 mRNA in A549 cells = experiment: qRT-PCR of CXCR4 mRNA in A549 cells
Procedure: FIGS. 14 (A) qRT-PCR data for LOX and (B) CXCR4 genes in A549 cells treated with LS72. Hypoxia was induced by hypoxia bag. Cells were maintained in F-12K medium with 2% serum. After reaching 65% confluency the cells were grown in serum free media and treated with LS72 (400 nM). Hypoxia was induced with DFO (300 μM) for 48 h. Error bars are s.e.m. of experiments performed in triplicate. **P<0.01, t test.
FIG. 18 qRT-PCR data for A549 cells where hypoxia was induced in 85% confluent cells. […] Error bars are ±sem for the experiments performed in triplicate. ** P<0.01, # P<0.1, t test.
(§1) After tests with various serum levels in the media and hypoxia induction methods, the conditions that worked remarkably and consistently well for the induction of HIF1α dependent genes were to keep A549 cells in 2% serum followed by treating cells with compound or control in the media with 0.2% serum for 48 h (FIG. 13). Under these conditions while hypoxia bag was the best option for induction of the LOX gene, the best hypoxic response leading to upregulation of many other HIF1α inducible genes was treatment with 300 μM DFO.
(§2) The hypoxia induction was done at a confluency of 85% cells in serum free F-12K medium with 300 μM DFO.

VEGF mRNA in A549 cells = experiment: qRT-PCR of VEGF mRNA in A549 cells
Procedure: (§3) FIG. 13 mRNA levels of three HIF1α inducible genes: VEGF, c-Met and Glut1 in A549 cells after treatment with LS72. Data from qRT-PCR experiments showing mRNA levels of three HIF1α inducible genes, VEGF, c-Met and Glut1 in A549 after treatment of the cells in a medium with 0.2% serum with LS72 (400 nM). Hypoxia was induced 300 μM by DFO. Error bars are ±s.e.m for the experiments performed in […]. Error bars are ±s.e.m. of experiments performed in triplicate. ***P<0.001, ** P<0.01, t test.
FIG. 15 mRNA levels for VEGF in A549 cell line, illustrating the dose response to LS72 treatment at three different concentrations. qRT-PCR assays were performed in order to determine the mRNA levels for VEGF in A549 cell line treated with LS72 at concentrations: 100 nM, 400 nM, 1600 nM. Hypoxia was induced by DFO (300 μM). Error bars are ±sem for the experiments performed in triplicate. Error bars are ±s.e.m. of experiments performed in triplicate. ** P<0.01, * P<0.05, t test.
as §1, §2

c-Met mRNA in A549 cells = experiment: qRT-PCR of c-Met mRNA in A549 cells; conditions: 300 μM DFO
Procedure: as §3
FIG. 16 mRNA levels for c-Met in A549 cell line showing dose response to LS72 at concentrations of 100 nM, 400 nM, 1600 nM. qRT-PCR was used to determine the mRNA levels of c-Met Hypoxia was induced with DFO (300 μM). Error bars are ±sem for the experiments performed in triplicate. Error bars are ±s.e.m. of experiments performed in triplicate. *** P<0.001, **P<0.01, # P<0.1, t test.
After tests with various serum levels in the media and hypoxia induction methods, the conditions that worked remarkably and consistently well for the induction of HIF1α dependent genes were to keep A549 cells in 2% serum followed by treating cells with compound or control in the media with 0.2% serum for 48 h (FIG. 13). […]

[2] = MCF7, hypoxic induction with DFO (300 μM), LS72 400 nM

Compound: CN1C(=O)[C@]2(Cc3ccc(CCc4ccc(C[C@@]56SS[C@@](CO)(C(=O)N5C)N(C)C6=O)cc4)cc3)SS[C@@]1(CO)C(=O)N2C (racemic) [LS72, 4,4′-((ethane-1,2-diylbis(4,1-phenylene))bis(methylene))bis(1-(hydroxymethyl)-5,7-dimethyl-2,3-dithia-5,7-diazabicyclo[2.2.2]octane-6,8-dione)]
- number of genes downregulated ≧2.0 fold ([1]; MCF7, LS72 400 nM): 88 genes
- number of genes upregulated by ≧2.0 fold ([1]; MCF7, LS72 400 nM): 90 genes
- number of genes with expression affected at ≧2.0 fold levels ([1]; MCF7, LS72 400 nM): 178 genes
- number of genes affected under DFO-induced hypoxia ([1]; MCF7, LS72 under DFO-induced hypoxia conditions): 190 genes
- CAV1 (Entrez 857) expression change, microarray [1, 2]: −1.3
- LOXL2 (Entrez 4017) expression change, microarray [1, 2]: −1.4
- MET (Entrez 4233) expression change, microarray [1, 2]: −2.2
- SLC5A6 (Entrez 8884) expression change, microarray [1, 2]: −2.4
- SLC5A8 (Entrez 160728) expression change, microarray [1, 2]: −1.4
- SLC7A2 (Entrez 6542) expression change, microarray [1, 2]: −2.5
- SLC9A2 (Entrez 6549) expression change, microarray [1, 2]: −1.8
- SLC9A3R1 (Entrez 9368) expression change, microarray [1, 2]: −1.6
- SLC25A12 (Entrez 8604) expression change, microarray [1, 2]: −1.8
- SLC25A15 (Entrez 10166) expression change, microarray [1, 2]: −1.5
- SLC26A2 (Entrez 1836) expression change, microarray [1, 2]: −1.4
- SLC27A4 (Entrez 10999) expression change, microarray [1, 2]: −1.4
- SLC35A1 (Entrez 10559) expression change, microarray [1, 2]: −2.2
- SLC35D1 (Entrez 23169) expression change, microarray [1, 2]: −3.1
- SLC38A9 (Entrez 153129) expression change, microarray [1, 2]: −1.5
- SLC39A11 (Entrez 201266) expression change, microarray [1, 2]: −1.9
- TFRC (Entrez 7037) expression change, microarray [1, 2]: −1.5
- TGFB3 (Entrez 7043) expression change, microarray [1, 2]: −1.5
- CXCR4 mRNA levels, dose response (CXCR4 mRNA in A549 cells; A549 85% confluent, 300 μM DFO, 400 nM and 1600 nM): dose-dependent decrease
- CXCR4 transcriptional activity (in words) (CXCR4 mRNA in A549 cells; A549, 400 nM): excellent inhibition of the transcriptional activity
- HIF1α inducible transcription of VEGF, dose response (VEGF mRNA in A549 cells; A549 85% confluent, hypoxia 300 μM DFO, 100 nM, 400 nM, 1600 nM): dose dependent decrease
- reduction of VEGF mRNA levels (VEGF mRNA in A549 cells; A549, LS72 400 nM, 0.2% serum, 300 μM DFO, 48 h): 50%
- VEGF transcription levels in normoxia (VEGF mRNA in A549 cells; A549, normoxia, 100 nM, 400 nM, 1600 nM): not changed significantly
- c-Met transcriptional upregulation, dose response (c-Met mRNA in A549 cells; A549 85% confluent, 100 nM, 400 nM, 1600 nM): Dose-dependent decrease
- c-Met mRNA level (in words) (c-Met mRNA in A549 cells; A549, LS72 400 nM, 0.2% serum, 48 h): significantly downregulated, essentially reaching its normoxic levels
